Experimental data taken from US20220380341A1, “INHIBITORS OF HIV-1 NEF FOR THE TREATMENT OF HIV DISEASE” (priority 2018, published 2022).
Where two headings read alike, the source gives them in different places.

Assays:
TZM-bl cell line = type: cell-based; conditions: human, 1 μM
In short: (§1)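 Read-out is luciferase from an integrated HIV-1 LTR reporter in TZM-bl cells, 48 h after HIV-1NL4-3 infection in the presence of 1 μM compound. Scale set by DMSO-treated wild-type-infected cells (0%) and Nef-defective virus (100% Nef-dependent effect). Cell Titer Blue measures cytotoxicity without virus.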

HIV-1NL4-3 = experiment: HIV-1 infectivity assay in TZM-bl reporter cell line (LTR-luciferase, 48 h); type: cell-based; conditions: Human immunodeficiency virus 1, TZM-bl
In short: as §1

HIV-1 NefNL4-3 = HIV-1 NefNL4-3 (Human immunodeficiency virus type 1 group M subtype B, UniProt P03406, A33V/T15A/T51N/V11I); experiment: Surface plasmon resonance binding to recombinant full-length Nef (NL4-3); conditions: for RU30/RUNef (extent of binding): response units at 30 μM relative to Nef immobilized on the SPR chip; for Nef NL4-3 Binding, SPR 1:1 or 2-site fitting KD1: 1:1 Langmuir fit where the KD2 cell says '1 to 1 fitting', else 2-site fit
[1] = 48 h, Table 1, TZM-bl cells, 1 μM, 48 h, 100% = Nef-defective HIV-1, read-out: HIV-1 Infectivity % Inhibition Norm. to Δ-Nef @ 1 μM
[2] = 1.0 μM, TZM-bl reporter cell line, Table 4, read-out: % Infectivity Inhibition
[3] = KD, M, Table 4, SPR fit 2-step induced fit, KD = koff/kon × koff2/(koff2 + kon2)
[4] = Nef NL4-3 Binding, SPR 2-state fitting KD, Table 1, 2-step induced-fit model
[5] = read-out: Nef NL4-3 Binding, SPR 1:1 or 2-site fitting KD2, Table 1, 2-site fit, second component
[6] = KD, M, Table 4, SPR fit 1:1 Langmuir, KD = koff/kon
[7] = Table 4, 1:1 Langmuir fit, T = 1/koff
[8] = Table 4, 2-step induced fit, T = 1/koff2
[9] = 48 h, Table 2, TZM-bl cells, 1 μM, 48 h, 100% = Nef-defective HIV-1, read-out: HIV-1 Infectivity % Inhibition Norm. to Δ-Nef @ 1 μM

O=S(=O)(C1CCCC1)N1CCC(c2nn(-c3nc4ccccc4[nH]3)c(O)c2CCc2ccc(F)cc2)CC1 [Compound I-753, 1-(1H-1,3-benzodiazol-2-yl)-3-[1-(cyclopentanesulfonyl)piperidin-4-yl]-4-[2-(4-fluorophenyl)ethyl]-1H-pyrazol-5-ol]
Percent Viability @ 1 μM (TZM-bl cells) (TZM-bl cell line): 95.8%
inhibition at 1 µM (HIV-1NL4-3; [1]): 76.5%
Kd (HIV-1 NefNL4-3): 20.4 nM

O=C(c1c(O)cc(O)cc1O)N1CCCC1c1nn(-c2nc3ccccc3[nH]2)c(O)c1CCc1ccc(F)cc1 (stereo not shown) [Compound I-762, 2-{2-[1-(1H-1,3-benzodiazol-2-yl)-4-[2-(4-fluorophenyl)ethyl]-5-hydroxy-1H-pyrazol-3-yl]pyrrolidine-1-carbonyl}benzene-1,3,5-triol]
% Cell Viability (TZM-bl cell line): 98.6%
Percent Viability @ 1 μM (TZM-bl cells) (TZM-bl cell line): 98.9%
inhibition at 1 µM (HIV-1NL4-3; [2]): 25.7%
inhibition at 1 µM (HIV-1NL4-3; [1]): 25.7%
Kd (HIV-1 NefNL4-3): 277 nM
Kd (HIV-1 NefNL4-3; [3]): 3.98 nM
Kd (HIV-1 NefNL4-3; [4]): 3.98 nM
Kd (HIV-1 NefNL4-3; [5]): 7460 nM

CS(=O)(=O)N1CCC(Cc2c(-c3ccc(C(F)(F)F)cc3)nn(-c3nc4ccccc4[nH]3)c2O)CC1 [Compound I-718, 1-(1H-1,3-benzodiazol-2-y1)-4-[(1-methanesulfonylpiperidin-4-yl)methyl]-3-[4-(trifluoromethyl)phenyl]-1H-pyrazol-5-ol]
% Cell Viability (TZM-bl cell line): 89.1%
Percent Viability @ 1 μM (TZM-bl cells) (TZM-bl cell line): 89.1%
inhibition at 1 µM (HIV-1NL4-3; [2]): 56.3%
inhibition at 1 µM (HIV-1NL4-3; [1]): 56.3%
Kd (HIV-1 NefNL4-3): 597 nM
Kd (HIV-1 NefNL4-3; [6]): 597 nM
T, minutes (residence time) (HIV-1 NefNL4-3; [7]): 3.62E + 00 minutes
RU30/RUNef (extent of binding) (HIV-1 NefNL4-3): 1.22E- 03

Oc1c(CCc2ccc(F)cc2)c(C2CCNCC2)nn1-c1nc2ccc(Cl)cc2[nH]1 [Compound I-503, 1-(5-chloro-1H-1,3-benzodiazol-2-yl)-4-[2-(4-fluorophenyl)ethyl]-3-(piperidin-4-yl)-1H-pyrazol-5-ol]
% Cell Viability (TZM-bl cell line): 90.7%
Percent Viability @ 1 μM (TZM-bl cells) (TZM-bl cell line): 90.7%
inhibition at 1 µM (HIV-1NL4-3; [2]): 0%
inhibition at 1 µM (HIV-1NL4-3; [1]): -94.1%
Kd (HIV-1 NefNL4-3): 256 nM
Kd (HIV-1 NefNL4-3; [3]): 0.617 nM
Kd (HIV-1 NefNL4-3; [4]): 0.511 nM
T, minutes (residence time) (HIV-1 NefNL4-3; [8]): 3.18E + 04 minutes
Kd (HIV-1 NefNL4-3; [5]): 3020 nM
RU30/RUNef (extent of binding) (HIV-1 NefNL4-3): 1.05E- 02

CS(=O)(=O)c1cccc(-c2nn(-c3nc4cccnc4[nH]3)c(O)c2CCC2CCOCC2)c1 [Compound I-305, 1-{3H-imidazo[4,5-b]pyridin-2-yl}-3-(3-methanesulfonylphenyl)-4-[2-(oxan-4-yl)ethyl]-1H-pyrazol-5-ol]
% Cell Viability (TZM-bl cell line): 96.8%
Percent Viability @ 1 μM (TZM-bl cells) (TZM-bl cell line): 96.8%
inhibition at 1 µM (HIV-1NL4-3; [2]): 59.3%
inhibition at 1 µM (HIV-1NL4-3; [1]): 59.3%
Kd (HIV-1 NefNL4-3): 744 nM
Kd (HIV-1 NefNL4-3; [6]): 744 nM
T, minutes (residence time) (HIV-1 NefNL4-3; [7]): 1.13E + 01 minutes
RU30/RUNef (extent of binding) (HIV-1 NefNL4-3): 2.13E- 03

Cn1ccc(-c2nn(-c3nc4ccccc4[nH]3)c(O)c2CCc2ccc(F)cc2)cc1=O [Compound I-133, 4-[1-(1H-1,3-benzodiazol-2-y1)-4-[2-(4-fluorophenyl)ethyl]-5-hydroxy-1H-pyrazol-3-yl]-1-methyl-1,2-dihydropyridin-2-one]
% Cell Viability (TZM-bl cell line): 100%
Percent Viability @ 1 μM (TZM-bl cells) (TZM-bl cell line): 102.5%
inhibition at 1 µM (HIV-1NL4-3; [2]): 16%
inhibition at 1 µM (HIV-1NL4-3; [1]): 16%
Kd (HIV-1 NefNL4-3): 779 nM
Kd (HIV-1 NefNL4-3; [3]): 1.51 nM
Kd (HIV-1 NefNL4-3; [4]): 1.51 nM
T, minutes (residence time) (HIV-1 NefNL4-3; [8]): 8.59E + 03 minutes
Kd (HIV-1 NefNL4-3; [5]): 65300 nM
RU30/RUNef (extent of binding) (HIV-1 NefNL4-3): 2.76E- 03

Nc1c(CCc2ccc(F)cc2)c(-c2ccc(Cl)cc2)nn1-c1nc2ccccc2[nH]1 [Compound I-1401, 1-(1H-1,3-benzodiazol-2-yl)-3-(4-chlorophenyl)-4-[2-(4-fluorophenyl)ethyl]-1H-pyrazol-5-amine]
Percent Viability @ 1 μM (TZM-bl cells) (TZM-bl cell line): 99.7%
inhibition at 1 µM (HIV-1NL4-3; [1]): -34.5%
Nef NL4-3 Binding, SPR 1:1 or 2-site fitting KD1 (HIV-1 NefNL4-3; Table 1): No Interaction

O=C(c1cccc(O)n1)N1CCC(c2nn(-c3nc4ccccc4[nH]3)c(O)c2CCc2ccc(F)cc2)CC1 [Compound I-731, 6-{4-[1-(1H-1,3-benzodiazol-2-yl)-4-[2-(4-fluorophenyl)ethyl]-5-hydroxy-1H-pyrazol-3-yl]piperidine-1-carbonyl}pyridin-2-ol]
Percent Viability @ 1 μM (TZM-bl cells) (TZM-bl cell line): 98.9%
inhibition at 1 µM (HIV-1NL4-3; [1]): 11.5%
Nef NL4-3 Binding, SPR 1:1 or 2-site fitting KD1 (HIV-1 NefNL4-3; Table 1): No Interaction

CS(=O)(=O)c1ccc(-c2nn(-c3cc(C(F)(F)F)n[nH]3)c(O)c2CCc2ccc(F)cc2)cc1 [Compound I-603, 4-[2-(4-fluorophenyl)ethyl]-3-(4-methanesulfonylphenyl)-5′-(trifluoromethyl)-2′H-[1,3′-bipyrazol]-5-ol]
% Cell Viability (TZM-bl cell line): 100%
Percent Viability @ 1 μM (TZM-bl cells) (TZM-bl cell line): 106.0%
inhibition at 1 µM (HIV-1NL4-3; [2]): 57.8%
inhibition at 1 µM (HIV-1NL4-3; [9]): 57.8%
Kd (HIV-1 NefNL4-3): 1830 nM
Kd (HIV-1 NefNL4-3; [3]): 35100 nM
Kd (HIV-1 NefNL4-3; Nef NL4-3 Binding, SPR 1:1 or 2-site fitting KD2, Table 2, 2-site fit, second component): 3600 nM
Kd (HIV-1 NefNL4-3; Nef NL4-3 Binding, SPR 2-state fitting KD, Table 2, 2-step induced-fit model): 58 nM
T, minutes (residence time) (HIV-1 NefNL4-3; [8]): 2.18E + 00 minutes
RU30/RUNef (extent of binding) (HIV-1 NefNL4-3): 1.19E- 02

Oc1c(CCc2ccc(F)cc2)c(CC2CCNCC2)nn1-c1nc2ccccc2[nH]1 [Compound I-553, 1-(1H-1,3-benzodiazol-2-yl)-4-[2-(4-fluorophenyl)ethyl]-3-[(piperidin-4-yl)methyl]-1H-pyrazol-5-ol]
Percent Viability @ 1 μM (TZM-bl cells) (TZM-bl cell line): 62.3%
inhibition at 1 µM (HIV-1NL4-3; [1]): 74.3%
Kd (HIV-1 NefNL4-3): 1230 nM

Oc1c(CCc2ccc(F)cc2)c(-c2ccc(C(F)(F)F)cn2)nn1-c1cc(C(F)(F)F)n[nH]1 [Compound I-602, 4-[2-(4-fluorophenyl)ethyl]-5′-(trifluoromethyl)-3-[5-(trifluoromethyl)pyridin-2-yl]-2′H-[1,3′-bipyrazol]-5-ol]
Percent Viability @ 1 μM (TZM-bl cells) (TZM-bl cell line): 97.2%
inhibition at 1 µM (HIV-1NL4-3; [9]): 73.8%
Nef NL4-3 Binding, SPR 1:1 or 2-site fitting KD1 (HIV-1 NefNL4-3; Table 2): No interaction

Oc1c(CCc2ccc(F)cc2)c(CC2CCN(Cc3ccncc3)CC2)nn1-c1nc2ccccc2[nH]1 [Compound I-809, 1-(1H-1,3-benzodiazol-2-yl)-4-[2-(4-fluorophenyl)ethyl]-3-({1-[(pyridin-4-yl)methyl]piperidin-4-yl}methyl)-1H-pyrazol-5-ol]
Percent Viability @ 1 μM (TZM-bl cells) (TZM-bl cell line): 97.9%
inhibition at 1 µM (HIV-1NL4-3; [1]): 14.1%
Kd (HIV-1 NefNL4-3): 2740 nM

O=C(C1CCOC1)N1CCC(Cc2nn(-c3nc4ccccc4[nH]3)c(O)c2CCc2ccc(F)cc2)CC1 (stereo not shown) [Compound I-765, 1-(1H-1,3-benzodiazol-2-yl)-4-[2-(4-fluorophenyl)ethyl]-3-{[1-(oxolane-3-carbonyl)piperidin-4-yl]methyl}-1H-pyrazol-5-ol]
Percent Viability @ 1 μM (TZM-bl cells) (TZM-bl cell line): 99.3%
inhibition at 1 µM (HIV-1NL4-3; [1]): 13.5%
Nef NL4-3 Binding, SPR 1:1 or 2-site fitting KD1 (HIV-1 NefNL4-3; Table 1): No Interaction

COC(=O)c1ccc(CCc2c(-c3ccccc3)nn(-c3nc4cc(Cl)ccc4[nH]3)c2O)cc1 [Compound I-171, methyl 4-{2-[1-(5-chloro-1H-1,3-benzodiazol-2-yl)-5-hydroxy-3-phenyl-1H-pyrazol-4-yl]ethyl}benzoate]
% Cell Viability (TZM-bl cell line): 75.8%
Percent Viability @ 1 μM (TZM-bl cells) (TZM-bl cell line): 75.8%
inhibition at 1 µM (HIV-1NL4-3; [2]): 100%
inhibition at 1 µM (HIV-1NL4-3; [1]): 131%
Kd (HIV-1 NefNL4-3): 892 nM
Kd (HIV-1 NefNL4-3; [3]): 13.3 nM
Kd (HIV-1 NefNL4-3; [4]): 13.3 nM
T, minutes (residence time) (HIV-1 NefNL4-3; [8]): 7.82E + 02 minutes
RU30/RUNef (extent of binding) (HIV-1 NefNL4-3): 2.77E- 02

O=C(c1nn(-c2nc3ccccc3[nH]2)c(O)c1CCc1ccc(F)cc1)N1CCCCC1 [Compound I-406, 1-(1H-1,3-benzodiazol-2-yl)-4-[2-(4-fluorophenyl)ethyl]-3-(piperidine-1-carbonyl)-1H-pyrazol-5-ol]
% Cell Viability (TZM-bl cell line): 100%
Percent Viability @ 1 μM (TZM-bl cells) (TZM-bl cell line): 109.7%
inhibition at 1 µM (HIV-1NL4-3; [2]): 0%
inhibition at 1 µM (HIV-1NL4-3; [1]): -4.4%
Kd (HIV-1 NefNL4-3): 549 nM
Kd (HIV-1 NefNL4-3; [3]): 2670 nM
Kd (HIV-1 NefNL4-3; Nef NL4-3 Binding, SPR 1:1 or 2-site fitting KD2, Table 1, 2-site fit, second component): 1230 nM
Kd (HIV-1 NefNL4-3; [4]): 2670 nM
T, minutes (residence time) (HIV-1 NefNL4-3; [8]): 2.85E + 00 minutes
RU30/RUNef (extent of binding) (HIV-1 NefNL4-3): 7.13E- 03
